Data as given in ChEMBL document CHEMBL1201862, “PubChem BioAssay data set” (2004).
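Exposure lasted 48 hours, with cells grown in 96-well plates and compounds tested at five concentrations. GI50: concentration for 50% inhibition of growth.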 The source made the active and inactive calls. Cut-off read from the data, not from the text of the source: active = GI50 up to about 1.1 µM and inactive = higher.

Assays:
Test in all cases: NCI anticancer screen, dose series, 48 h
[1] = system: A549
[2] = system: CCRF-CEM
[3] = system: DU-145
[4] = system: HCT-116
[5] = system: HCT-15
[6] = system: HOP-92
[7] = system: Hs-578T
[8] = system: MDA-MB-231
[9] = system: Malme-3M
[10] = system: NCI-H522
[11] = system: NCI/ADR-RES
[12] = system: OVCAR-5
[13] = system: OVCAR-8
[14] = system: PC-3
[15] = system: SF-539
[16] = system: SK-MEL-5
[17] = system: SN12C
[18] = system: SW-620
[19] = system: T47D
[20] = system: TK-10

Structure (SMILES)	GI50 [1]	GI50 [2]	GI50 [3]	GI50 [4]	GI50 [5]	GI50 [6]	GI50 [7]	GI50 [8]	GI50 [9]	GI50 [10]	GI50 [11]	GI50 [12]	GI50 [13]	GI50 [14]	GI50 [15]	GI50 [16]	GI50 [17]	GI50 [18]	GI50 [19]	GI50 [20]
O=C1/C(=C/c2ccc(O)cc2)CCCC1CN1CCCCC1 (stereo not drawn)	17.2 µM (inactive)	2.57 µM (inactive)	7.24 µM (inactive)	1.79 µM (inactive)	1.32 µM	1.78 µM (inactive)	3.71 µM (inactive)	2.27 µM (inactive)	1.88 µM (inactive)	1.25 µM (inactive)	8.2 µM (inactive)	16.3 µM (inactive)	5.92 µM (inactive)	5.38 µM (inactive)	3.94 µM (inactive)	6.01 µM (inactive)	2.29 µM (inactive)	1.88 µM (inactive)	2.32 µM (inactive)	2.55 µM (inactive)
CCN(CC)CC(O)C1CCC(c2ccccc2)CC1 (stereo not drawn)	32.6 µM (inactive)	27.4 µM (inactive)	61 µM (inactive)	23.2 µM (inactive)	13.2 µM	18.6 µM (inactive)	30.5 µM (inactive)	17.1 µM (inactive)	16.3 µM (inactive)	16.2 µM (inactive)	43.2 µM (inactive)	23.2 µM (inactive)	16.3 µM (inactive)	43.6 µM (inactive)	16.7 µM (inactive)	13.7 µM (inactive)	39.7 µM (inactive)	24.8 µM (inactive)	26.9 µM (inactive)	15.3 µM (inactive)
O=C1C=C(c2ccccc2)O/C1=C/C(=O)c1ccc(Cl)cc1		3.35 µM (inactive)	37.3 µM (inactive)	16.4 µM (inactive)	22 µM	19.2 µM (inactive)	22.1 µM (inactive)	17.2 µM (inactive)	17.2 µM (inactive)	11.1 µM (inactive)	22.1 µM (inactive)	17.6 µM (inactive)	23.1 µM (inactive)	14.2 µM (inactive)	17.8 µM (inactive)	16.7 µM (inactive)	16 µM (inactive)	11.7 µM (inactive)	> 10 µM (inactive)	20.2 µM (inactive)
N#Cc1c(Cl)cc(C#N)n2c1nc1ccccc12	15 µM (inactive)	1.3 µM (inactive)	20.8 µM (inactive)	4.11 µM (inactive)	6.07 µM	8.04 µM (inactive)	25.8 µM (inactive)	8.87 µM (inactive)	5.35 µM (inactive)	2.42 µM (inactive)	15.1 µM (inactive)	16.4 µM (inactive)	5.92 µM (inactive)	18.2 µM (inactive)	7.24 µM (inactive)	15.5 µM (inactive)	19.4 µM (inactive)	3.47 µM (inactive)	3.12 µM (inactive)	13.2 µM (inactive)
CCOC(=O)C1CCCCN1C(=O)Cc1c[nH]c2ccccc12 (stereo not drawn)	55.2 µM (inactive)	42.5 µM (inactive)	84.1 µM (inactive)	> 100 µM (inactive)	87.7 µM	16 µM (inactive)	24.8 µM (inactive)	79.6 µM (inactive)	57.4 µM (inactive)	31.4 µM (inactive)	69.7 µM (inactive)	> 100 µM (inactive)	42.4 µM (inactive)	31.7 µM (inactive)	> 100 µM (inactive)		> 100 µM (inactive)	94.8 µM (inactive)	37 µM (inactive)	> 100 µM (inactive)
O=C(Nn1c(-c2ccccc2)nc2ccccc2c1=O)c1ccc([N+](=O)[O-])cc1	> 100 µM (inactive)	> 100 µM (inactive)	> 100 µM (inactive)	> 10 µM (inactive)	> 100 µM	32.4 µM (inactive)	> 100 µM (inactive)	> 100 µM (inactive)	> 100 µM (inactive)	> 100 µM (inactive)	> 100 µM (inactive)	> 100 µM (inactive)	> 100 µM (inactive)	> 100 µM (inactive)	> 100 µM (inactive)	64.1 µM (inactive)	> 100 µM (inactive)	> 100 µM (inactive)	> 100 µM (inactive)	> 100 µM (inactive)
COc1cccc(N2C(=O)C3CC(CC(C)(C)C)c4c([nH]c5ccccc45)C3C2=O)c1 (stereo not drawn)	> 10 µM (inactive)	> 10 µM (inactive)	> 10 µM (inactive)	4.93 µM (inactive)	> 10 µM	> 10 µM (inactive)	3.5 µM (inactive)	4.92 µM (inactive)	5.9 µM (inactive)	> 10 µM (inactive)	> 10 µM (inactive)	> 10 µM (inactive)	3.56 µM (inactive)	> 10 µM (inactive)	2.56 µM (inactive)	> 10 µM (inactive)	6 µM (inactive)	> 10 µM (inactive)	> 10 µM (inactive)	> 10 µM (inactive)
